Reference: patent US20060188945A1, “Screening methods” (priority 2004, published 2006)

Tests used:
full-length human GHR = molecular target: T1, full-length human GHR (Homo sapiens, UniProt P10912); test: Immunofluorescence of subcellular distribution and internalization of growth hormone receptor; assay type: cell-based; settings: WRL-68 cells transfected with human GHR; immunofluorescence using Mab263; 10-100 nM GH or 2 μM BVT.3693
T1 construct: plasmid DNA encoding the full-length human GHR; expressed in transfected cells; host or cells: WRL-68 cells
T1 sequence (P10912 19-638): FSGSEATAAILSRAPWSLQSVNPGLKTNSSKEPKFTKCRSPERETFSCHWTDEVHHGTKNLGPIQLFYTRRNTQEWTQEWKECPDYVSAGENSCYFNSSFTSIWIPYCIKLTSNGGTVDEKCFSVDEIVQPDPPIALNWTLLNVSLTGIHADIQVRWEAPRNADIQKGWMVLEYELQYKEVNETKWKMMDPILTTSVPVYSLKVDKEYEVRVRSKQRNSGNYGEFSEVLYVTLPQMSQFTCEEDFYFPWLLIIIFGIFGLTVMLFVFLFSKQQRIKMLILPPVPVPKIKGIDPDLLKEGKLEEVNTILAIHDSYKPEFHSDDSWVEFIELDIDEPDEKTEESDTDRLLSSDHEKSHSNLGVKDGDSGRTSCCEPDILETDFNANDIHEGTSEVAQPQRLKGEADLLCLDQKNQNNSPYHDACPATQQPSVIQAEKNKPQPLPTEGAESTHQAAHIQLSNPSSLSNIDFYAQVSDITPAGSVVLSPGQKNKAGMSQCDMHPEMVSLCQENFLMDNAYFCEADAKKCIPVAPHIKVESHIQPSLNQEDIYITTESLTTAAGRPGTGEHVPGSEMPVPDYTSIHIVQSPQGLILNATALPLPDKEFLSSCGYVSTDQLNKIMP
Description: WRL-68 cells were cultured in EMEM medium with NaHCO3 (Statens Veterinärmedicinska Anstalt, Uppsala, Sweden), supplemented with 10% fetal bovine serum (FBS), 2% L-Glutamine, 1% Pyruvate, and non-essential acids (NEA), all from GIBCO, at 37° C. in 5% CO2.
Transfection: Cells were transfected with plasmid DNA encoding the full-length human GHR (pMB 1288, 2 μg/μl) using DOTAP Liposomal Transfection Reagent (Roche), according to the manufacturers instructions. WRL-68 cells in T75 flasks were transfected with 10 μg DNA for each flask. 5 μl (10 μg) DNA was diluted with 250 μl OPTIMEM1 medium (GIBCO), and mixed with 75 μl DOTAP reagent diluted in 175 μl OPTIMEM1 medium. The mixture was incubated for 10 minutes and then mixed with 10 ml OPTIMEM1 medium. Cells were washed once and then incubated for 4 hours with the DNA/DOTAP transfection mix. The transfection reagents were removed and fresh culture medium was added. Cells were re-seeded into new culture dishes the following day.
Stimulation: 3×10^4 cells were seeded on chamber slides in eight-well dishes and grown for two days. […] After treatment, the cells were rinsed twice with ice-cold PBS. Fixation was performed with 4% paraformaldehyde for 20 minutes.
Staining with rabbit antiserum: The chamber slides were washed twice by immersion of the slides in a container with 0.05% TBS-Tween. […]

[1] = molecular target: T2, membrane bound GHR on a human osteosarcoma cell line (Homo sapiens, UniProt P10912); test: DELFIA assay for determination of receptor on cell surface; assay type: cell-based; settings: stimulated for 1.5 hours with increasing concentrations, Eu-labeled anti GH-rec antibody BB117, FIG. 2
T2 construct: endogenous in cells
T2 sequence (P10912 19-638): T1 sequence (P10912 19-638)
Description: The following method was used to quantify the number of GH receptors on the cell surface after stimulation with different compounds.
On day 1, WRL-68 cells were seeded at a density of 15,000 cells per well and incubated under standard cell culture conditions.
On day 3, cells were washed with serum-free medium and incubated 1 hour prior to stimulation with a dose-response of BVT.3693. The cells were then washed with ice-cold PBS (Dulbecco PBS-A) and fixated with 4% paraformaldehyde on ice for 20 minutes. Thereafter the plates were washed with PBS and stored in a refrigerator until used. […]
On day 4, the plates were washed with PBS using a DELFIA plate washer. […] The amount of Europium fluorescence was determined by reading in a Victor analysis instrument.
To correlate the amount of Europium fluorescence measured (which fluorescence is proportional to the number of GH receptors present on the cell surface) to the number of cells attached to the bottom of the well after all the washing steps, we developed an internal standard. […] Instead, we developed a method to quantify the amount of DNA in the wells as an internal standard. […]
10,000 cells per well were seeded the day before stimulation. […] Receptor quantification was performed using an Eu-labeled anti GH-rec antibody BB117, as described above (simplified protocol).

amount of GHR on the surface of the cells [1]: dose dependent reduction
Compound: Cc1ccc(S(N)(=O)=O)cc1NC(=O)c1ccc(Br)o1 [BVT.3693, N-[5-(aminosulfonyl)-2-methylphenyl]-5-bromo-2-furamide]
subcellular distribution of GHR after stimulation (full-length human GHR): intracellular staining, with both a nuclear localisation and a cytoplasmic localisation of the receptor
